Results on seven compounds are retold here after patent US20180313843A1, “SAMHD1 MODULATION FOR TREATING RESISTANCE TO CANCER THERAPY” (priority 2015, published 2018).

Experiment [1] concerns intracellular Ara-CTP, CTP and dCTP levels. Kind of experiment: Effect of 3-DU and Ara-C on intracellular triphosphate levels. It is filed as cell-based. The conditions noted are these: 3-DU treatment in combination with Ara-C. As to the method: dNTP measurement. 5×10^5 cells were treated with 10 μg/ml Ara-C 13C3 (Santa Cruz) and incubated at 37° C. in a humidified 5% CO2 incubator for 6 hours. Subsequently, cells were washed twice in 1×PBS, pelleted and stored at −20° C. until measurement. The samples were analyzed at the Institute of Clinical Pharmacology (Goethe University Frankfurt) by liquid chromatography-electrospray ionization-tandem mass spectrometry as previously described (reference 8).
Briefly, the analytes were extracted by protein precipitation with methanol. […] Additional to the analytes reported in the publication, 13C3-Ara-CMP, 13C3-Ara-CDP and 13C3-Ara-CTP were quantified using the validated method and cytidine-^13C9, ^15N3-5′-triphosphate as internal standard (IS). The precursor-to-product ion transitions used as quantifiers were m/z 327.0→115.1 for 13C3-Ara-CMP, m/z 407.0→115.1 for 13C3-Ara-CDP and m/z 487.0→115.1 for 13C3-Ara-CTP. A calibration curve was constructed for the quantitation of 13C3-Ara-CMP while no calibration standards were commercially available for 13C3-Ara-CDP and 13C3-Ara-CTP. For this reason, these analytes were quantified semiquantitatively by comparing the peak area ratios (analyte/IS) determined in the differently treated samples. […]

In experiment [2] the test system is glioma cell line U251-MG. Briefly: Effect of Vpx-VLPs on cytotoxic activity of cytarabine in glioma cells. It is filed as cell-based. The conditions noted are these: U251-MG treated with Vpx-VLPs.
The test system of experiment [3] is THP-1 −/−. Briefly: Cell viability, Ara-C with or without 3-DU and other NAs, SAMHD1 knock-out. It is filed as cell-based, human. As to the method:
THP-1 CRISP/Cas9 control and SAMHD1 knock-out cells were provided by Prof. Veit Hornung and cultivated in RPMI supplemented with 10% FCS, 100 IU/ml penicillin, and […] streptomycin. PDX cells were thawed and cultivated as previously described (Vick, 2015).
(§1) Cell viability assay. Cell viability of the AML cell lines and primary AML cultures were determined by the 3-(4,5-dimethylthiazol-2-yl)-2,5-diphenyltetrazolium bromide (MTT) dye reduction assay after 96 hour incubation as described previously (reference 7). Due to lower cell proliferation frequencies of the primary cells the CellTiter-Glo® Luminescent Cell Viability Assay (Promega) was used according to manufacturer's instruction. Here, the number of viable cells was determined 96 hours post treatment based on the quantification of the ATP levels.

Experiment [4] has as its system AML cell lines. Briefly: Cell viability assay (MTT), cytarabine in panel of AML cell lines. It is filed as cell-based. The conditions noted are these: Homo sapiens, read-out: IC50 values (concentrations inhibiting 50% of cell growth) of cytarabine; range over AML cell lines. As to the method:
as §1

For experiment [5], the system named is THP-1 (−/−) and THP-1 (+/+) cells. Briefly: Cytarabine triphosphate measurement by liquid chromatography tandem mass spectrometry. The note with it: 10 μg/ml cytarabine for 6 h. It is filed as cell-based, human.
Protocol: dNTP measurement. […] Subsequently, cells were washed twice in 1×PBS, pelleted and stored at −20° C. until measurement. The samples were analyzed at the Institute of Clinical Pharmacology (Goethe University Frankfurt) by liquid chromatography-electrospray ionization-tandem mass spectrometry as previously described (reference 8).
Briefly, the analytes were extracted by protein precipitation with methanol. An anion exchange HPLC column (BioBasic AX, Thermo) was used for the chromatographic separation and a 5500 QTrap (Sciex, Darmstadt, Germany) was used as analyzer, operating as triple quadrupole in positive multiple reaction monitoring (MRM) mode. Additional to the analytes reported in the publication, 13C3-Ara-CMP, 13C3-Ara-CDP and 13C3-Ara-CTP were quantified using the validated method and cytidine-^13C9, ^15N3-5′-triphosphate as internal standard (IS). The precursor-to-product ion transitions used as quantifiers were m/z 327.0→115.1 for 13C3-Ara-CMP, m/z 407.0→115.1 for 13C3-Ara-CDP and m/z 487.0→115.1 for 13C3-Ara-CTP. A calibration curve was constructed for the quantitation of 13C3-Ara-CMP while no calibration standards were commercially available for 13C3-Ara-CDP and 13C3-Ara-CTP. For this reason, these analytes were quantified semiquantitatively by comparing the peak area ratios (analyte/IS) determined in the differently treated samples.
Experiment [6] relates to SIG-M5 cells. Kind of experiment: Cytarabine toxicity after SAMHD1 shRNA knock-down. It is filed as cell-based, human. The note with it: SIG-M5, SAMHD1 shRNA compared to control shRNA.
The test system of experiment [7] is OCI-AML3 shSAMHD1. Kind of experiment: Cell viability, Ara-C with or without 3-DU, SAMHD1 knock-down. The conditions noted are these: OCI-AML-3, SAMHD1 shRNA compared to control shRNA. It is filed as cell-based, human.
The subject of experiment [8] is THP-1 cells. Kind of experiment: Cytotoxic effects of cytarabine in VLP-treated THP-1 cells. It is filed as cell-based, human. The note with it: Vpx-VLPs treated THP-1 cells.
In experiment [9] the test system is HEL SAMHD1 wt. Kind of experiment: Cell viability, Ara-C with or without 3-DU, SAMHD1 wt over-expression. The conditions noted are these: for dependence of anti-leukemic activity on expression levels of SAMHD1: THP-1 (−/−) vs (+/+), AML panel and HEL versus HEL SAMHD1 wt cells. It is filed as cell-based, human.
The test system of experiment [10] is HELrAra-C, HL-60rAra-C and Molm-13rAra-C. Kind of experiment: Cytarabine cytotoxicity in Ara-C resistant AML sublines. It is filed as cell-based, human. As to the method: Ara-C resistant cell lines THP-1, HEL, HL-60, Molm13, and Molt4 were established by continuous exposure to increasing drug concentrations and are part of the Resistant Cancer Cell Line (RCCL) collection (http://www.kent.ac.uk/stms/cmp/RCCL/RCCLabout). The generation of resistant cell lines required 1 to 2 years, depending on the cell line used. All cell lines were maintained in IMDM supplemented with 10% FCS (SIG-M5 20% FCS), […] L-Glutamine, 100 IU/ml penicillin, and […] streptomycin at 37° C. in a humidified 5% CO2 incubator. 293T cells were maintained as previously described (Keppler et al).
as §1
Remarkably, expression levels of SAMHD1 were increased in resistant cells relative to the parental cell lines (FIGS. 8A and B).

The test system of experiment [11] is BFTC 905. Kind of experiment: Ara-C/SAMHD1-inhibitor combination treatment, urothelial carcinoma cells. It is filed as cell-based. The conditions noted are these: Homo sapiens, BFTC-905, read-out: IC50 value Ara-C.
The target of experiment [12] is T1, SAMHD1 (Homo sapiens, UniProt Q9Y3Z3).
T1 construct: made in house
T1 sequence (Q9Y3Z3 whole entry): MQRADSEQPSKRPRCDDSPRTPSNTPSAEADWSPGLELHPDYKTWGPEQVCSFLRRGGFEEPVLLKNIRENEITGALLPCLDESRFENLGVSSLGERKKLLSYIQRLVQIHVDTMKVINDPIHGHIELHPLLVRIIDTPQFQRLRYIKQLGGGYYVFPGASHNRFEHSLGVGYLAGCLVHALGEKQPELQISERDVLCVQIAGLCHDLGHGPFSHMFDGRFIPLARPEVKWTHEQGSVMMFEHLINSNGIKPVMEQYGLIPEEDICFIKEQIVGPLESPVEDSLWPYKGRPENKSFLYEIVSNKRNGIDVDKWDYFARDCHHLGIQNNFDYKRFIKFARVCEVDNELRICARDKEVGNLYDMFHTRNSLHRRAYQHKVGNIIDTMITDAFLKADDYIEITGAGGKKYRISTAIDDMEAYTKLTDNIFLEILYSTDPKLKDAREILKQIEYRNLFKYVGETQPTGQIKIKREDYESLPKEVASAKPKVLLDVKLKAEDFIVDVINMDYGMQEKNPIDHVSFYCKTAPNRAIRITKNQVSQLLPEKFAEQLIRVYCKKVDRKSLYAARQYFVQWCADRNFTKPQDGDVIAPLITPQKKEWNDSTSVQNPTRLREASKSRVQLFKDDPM
Kind of experiment: Enzymatic in vitro assay with bacterially expressed SAMHD1 protein (triphosphohydrolase activity). It is filed as biochemical. The note with it: dGTP used as activator of SAMHD1. From the text:
SAMHD1 hydrolyzes intracellular dNTPs resulting in a reduction of intracellular dNTP pools.

≈ marks a conversion by molar mass, not a printed value.

Turning to `O=C1C=CN([C@@H]2O[C@H](CO)[C@@H](O)[C@H]2O)C(=O)C1` [3-DU, 3-deazauridin], in experiment [1], the “intracellular Ara-CTP levels” value is recorded as “strongly increased”; the “intracellular cytodine-triphosphate (CTP) and dCTP levels” value is recorded as “reducing”.
Take `Nc1ccn([C@@H]2O[C@H](CO)[C@@H](O)[C@@H]2O)c(=O)n1` [Ara-C, cytarabine]: in experiment [2], the “enhancement of the anti-tumoral activity of cytarabine” value is listed as “up to 10 fold”. In addition, the “increase of cytarabine toxicity in SAMHD1 knock-out cells” value in experiment [3] (THP-1 (−/−) relative to control THP-1 (+/+)) is on record as “about 50 fold”. For the same compound, the IC50 is 0.0078 to 0.56 µg/mL (≈ 0.0321 to 2.3 µM) in experiment [4]; 24 to 94 µg/mL (≈ 98.7 to 386 µM) in experiment [10] (Homo sapiens, read-out: IC50 values of cytarabine, range over highly resistant sublines of HEL, HL-60 and MOLM-13); 0.021 µg/mL in experiment [11]. In experiment [5], the “cytarabine triphosphate amounts accumulated, THP-1(−/−) compared with THP-1(+/+)” value is “About 20 fold”. In addition, the entries for the “increase of cytarabine toxicity by SAMHD1 knock-down” value in [6] and in [7] were roughly 9 fold and “about 6 fold”, respectively. The “increase of cytarabine's anti-leukemic activity” value in [8] is reported as “about 20 fold”. For the same compound, the “decrease of sensitivity to cytarabine by wt SAMHD1 over-expression” value in [9] (HEL wt SAMHD1 compared to parental HEL or HEL SAMHD1 D207N) is “about 70 fold”. Besides, the “toxicity of cytarabine after reduction of SAMHD1 levels using Vpx-VLPs” value in [10] (all three cell lines tested) is “increased toxicity”.
In the case of `Nc1nc2c(ncn2[C@@H]2O[C@H](CO)[C@@H](O)[C@@H]2O)c(=O)[nH]1` [Ara-G], the “dependence of anti-leukemic activity on expression levels of SAMHD1” value (from here on “dependence of anti-leukemic activity”) in experiment [9] was “depends on expression levels of SAMHD1 albeit to a lesser extent than for cytarabine”.
`Nc1nc(Cl)nc2c1ncn2[C@@H]1O[C@H](CO)[C@@H](O)[C@@H]1F` [clofarabine]: the “IC50 lower in THP-1 (−/−) cells than in THP-1 (+/+) cells” value (shortened to “IC50 lower in THP-1 (−/−) cells than”) in [3] was determined as 2 fold. Further, the “dependence of anti-leukemic activity” value in experiment [9] is recorded as “depends on expression levels of SAMHD1 albeit to a lesser extent than for cytarabine”.
Regarding `Nc1nc(F)nc2c1ncn2[C@@H]1O[C@H](CO)[C@@H](O)[C@@H]1O` [fludarabine], the “IC50 lower in THP-1 (−/−) cells than” value in experiment [3] came to 5 fold.
For the compound `COc1nc(N)nc2c1ncn2[C@@H]1O[C@H](CO)[C@@H](O)[C@@H]1O` [nelarabine], in experiment [3], the “IC50 lower in THP-1 (−/−) cells than” value worked out at 5 fold. For the same compound, in [9], the “dependence of anti-leukemic activity” value is on record as “depends on expression levels of SAMHD1 albeit to a lesser extent than for cytarabine”.
Regarding cytarabine triphosphate, the “substrate or activator of SAMHD1's triphosphohydrolase activity” value in experiment [12] is recorded as “direct substrate, but not as an activator”.
